Measurements reported in ChEMBL document CHEMBL4138197, “Design, synthesis and pharmacological evaluation of N-(5-chloro-2,4-dihydroxybenzoyl)-(R)-N-arylmethyl-1,2,3,4-tetrahydro-3-isoquinolinecarboxamides as potent Hsp90 inhibitors” (Eur J Med Chem, 2018).
The source made the active and inactive calls. No cut-off for these calls is given here.

Tests used:
[1] = molecular target: Heat shock protein HSP 90-alpha (Homo sapiens) (UniProt P07900); test: Binding affinity to HSP90alpha in HEK293T cells assessed as induction of thermal stabilisation of HSP90alpha pre-incubated for 3 hrs followed by heating at 37 to 63 degC for 3 mins then subsequent cooling for 3 mins by Western blot-based CESTA relative to beta actin; type: cell-based
NCI-H1299 = test: Antiproliferative activity against human NCI-H1299 cells by SRB assay; type: functional, cell-based
[2] = molecular target: T1, Heat shock protein HSP90 (Homo sapiens) (UniProt P07900+P08238); test: Inhibition of HSP90 in human MDA-MB-453 cells assessed as suppression of TNFalpha-induced NFkappaB activation by measuring reduction in relA/p65 translocation to the nucleus at 0.25 uM after 24 hrs by Western blot analysis; type: cell-based
MDA-MB-453 [3] = test: Cell cycle arrest in human MDA-MB-453 cells assessed as reduction in accumulation at S phase at 0.25 to 1 uM after 12 hrs by propidium iodide-staining based flow cytometry; type: functional
[4] = molecular target: Heat shock protein HSP 90-alpha (Homo sapiens) (UniProt P07900); test: Inhibition of HSP90alpha in human MDA-MB-453 cells assessed as upregulation of HSP70 levels by Western blot analysis; type: cell-based
[5] = molecular target: Heat shock protein HSP 90-alpha (Homo sapiens) (UniProt P07900); test: Inhibition of HSP90alpha in human MDA-MB-453 cells assessed as down-regulation of HER2 levels by Western blot analysis; type: cell-based
MDA-MB-453 [6] = test: Induction of apoptosis in human MDA-MB-453 cells assessed downregulation of bcl2 expression at 0.25 uM at 48 hrs by Western blot analysis; type: functional, cell-based
MDA-MB-453 [7] = test: Induction of apoptosis in human MDA-MB-453 cells assessed as necrotic cells at 1 uM after 48 hrs by Annexin V-FITC/propidium iodide-staining based flow cytometry (reference value: 0.01%); type: functional
MCF7 = test: Antiproliferative activity against human MCF7 cells by SRB assay; type: functional, cell-based
MDA-MB-453 [8] = test: Effect on Bax protein expression in human MDA-MB-453 cells at 0.25 uM incubated for 6 to 48 hrs by Western blot analysis; type: functional, cell-based
MDA-MB-453 [9] = test: Induction of apoptosis in human MDA-MB-453 cells assessed as early apoptotic cells at 1 uM after 48 hrs by Annexin V-FITC/propidium iodide-staining based flow cytometry (reference value: 1.65%); type: functional
MDA-MB-453 [10] = test: Induction of apoptosis in human MDA-MB-453 cells assessed as early apoptotic cells at 4 uM after 48 hrs by Annexin V-FITC/propidium iodide-staining based flow cytometry (reference value: 1.65%); type: functional
MDA-MB-453 [11] = test: Induction of apoptosis in human MDA-MB-453 cells assessed as late apoptotic cells at 0.25 uM after 48 hrs by Annexin V-FITC/propidium iodide-staining based flow cytometry (reference value: 3.40%); type: functional
HCT-116 = test: Antiproliferative activity against human HCT116 cells by SRB assay; type: functional, cell-based
SK-OV-3 = test: Antiproliferative activity against human SKOV3 cells by SRB assay; type: functional, cell-based
MDA-MB-453 [12] = test: Induction of apoptosis in human MDA-MB-453 cells assessed as increase in cleaved PARP activity at 0.25 uM up to 48 hrs by Western blot analysis; type: functional, cell-based
[13] = molecular target: MAP kinase p38 (Homo sapiens) (UniProt O15264+Q15759+Q16539+P53778); test: Induction of p38 in human MDA-MB-453 cells assessed as upregulation of Hsp27 phosphorylation at Ser82 at 0.25 uM after 2 hrs in presence of […] by Western blot analysis; type: cell-based
[14] = molecular target: Heat shock protein HSP 90-alpha (Homo sapiens) (UniProt P07900); test: Inhibition of HSP90alpha in human MDA-MB-453 cells assessed as down-regulation of cdc2 levels by Western blot analysis; type: cell-based
MDA-MB-453 [15] = test: Induction of apoptosis in human MDA-MB-453 cells assessed as necrotic cells at 0.25 uM after 48 hrs by Annexin V-FITC/propidium iodide-staining based flow cytometry (reference value: 0.01%); type: functional
A549 = test: Antiproliferative activity against human A549 cells after 72 hrs by SRB assay; type: functional, cell-based; conditions: A549, 72 h
[16] = molecular target: T2, Inhibitor of nuclear factor kappa-B kinase subunit alpha (Homo sapiens) (UniProt O15111); test: Induction of IKKalpha association to hsp27 in human MDA-MB-453 cells at 0.25 uM after 6 hrs by immunoprecipitation and Western analysis; type: cell-based
T2 sequence (whole entry): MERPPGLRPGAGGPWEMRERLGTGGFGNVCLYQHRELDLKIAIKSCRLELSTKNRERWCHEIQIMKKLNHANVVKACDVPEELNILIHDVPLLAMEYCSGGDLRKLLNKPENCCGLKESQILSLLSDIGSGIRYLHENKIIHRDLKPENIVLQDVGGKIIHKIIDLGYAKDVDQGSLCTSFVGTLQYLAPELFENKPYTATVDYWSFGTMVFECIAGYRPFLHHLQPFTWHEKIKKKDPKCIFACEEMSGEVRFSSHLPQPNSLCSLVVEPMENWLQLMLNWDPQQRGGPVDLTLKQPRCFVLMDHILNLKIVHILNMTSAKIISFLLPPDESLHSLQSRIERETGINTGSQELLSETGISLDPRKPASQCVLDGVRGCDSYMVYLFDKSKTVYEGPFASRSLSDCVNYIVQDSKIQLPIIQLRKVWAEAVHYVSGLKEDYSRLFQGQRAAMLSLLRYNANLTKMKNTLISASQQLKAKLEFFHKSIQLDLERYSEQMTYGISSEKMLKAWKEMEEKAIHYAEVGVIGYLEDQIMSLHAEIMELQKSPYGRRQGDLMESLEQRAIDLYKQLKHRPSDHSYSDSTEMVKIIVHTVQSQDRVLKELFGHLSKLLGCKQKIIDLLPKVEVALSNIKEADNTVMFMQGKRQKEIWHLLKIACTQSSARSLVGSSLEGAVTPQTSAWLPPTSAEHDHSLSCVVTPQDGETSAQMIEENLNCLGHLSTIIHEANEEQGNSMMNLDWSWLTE

MDA-MB-453 [17] = test: Induction of apoptosis in human MDA-MB-453 cells assessed as increase in cleaved caspase7 activity at 0.25 uM up to 48 hrs by Western blot analysis; type: functional, cell-based
[18] = molecular target: T1, Heat shock protein HSP90 (Homo sapiens); test: Inhibition of HSP90 in human MDA-MB-453 cells assessed as downmodulation of IKKalpha expression at 0.25 uM up to 48 hrs by Western blot analysis; type: cell-based
[19] = molecular target: T1, Heat shock protein HSP90 (Homo sapiens); test: Inhibition of HSP90 in human MDA-MB-453 cells assessed as downmodulation of IKKgamma expression at 0.25 uM up to 48 hrs by Western blot analysis; type: cell-based
MDA-MB-453 [20] = test: Induction of apoptosis in human MDA-MB-453 cells assessed as increase in cleaved caspase7 activity at 0.25 uM up to 48 hrs in presence of z-VAD-fmk by Western blot analysis; type: functional, cell-based
MDA-MB-453 [21] = test: Induction of apoptosis in human MDA-MB-453 cells assessed as necrotic cells at 4 uM after 48 hrs by Annexin V-FITC/propidium iodide-staining based flow cytometry (reference value: 0.01%); type: functional

In the case of O=C(NCc1ccncc1)[C@H]1Cc2ccccc2CN1C(=O)c1cc(Cl)c(O)cc1O, the Activity [1] is reported as “Dose-dependent effect”, the Activity (NCI-H1299) is reported as “Active” and the inhibition [2] is reported as “Active”. For the same compound, the Activity (MDA-MB-453 [3]) was “Active”, the inhibition [4] was “Dose-dependent effect” and the inhibition [5] was “Dose-dependent effect”. For the same compound, the Activity (MDA-MB-453 [6]) was “Active”, the Activity (MDA-MB-453 [7]) was 0.03% and the Activity (MCF7) was “Active”. For the same compound, the Activity (MDA-MB-453 [8]) was “inactive”, the Activity (MDA-MB-453 [9]) was 15.88% and the Activity (MDA-MB-453 [10]) was 23.49%. For the same compound, the Activity (MDA-MB-453 [11]) was 4.19%, the Activity (HCT-116) was “Active” and the Activity (SK-OV-3) was “Active”. For the same compound, the Activity (MDA-MB-453 [12]) was “Active”, the Activity [13] was “inactive” and the inhibition [14] was “Dose-dependent effect”. The Activity (MDA-MB-453 [15]) was 0.02%, the IC50 (A549) was 0.42 µM and the Activity [16] was “Active”. The Activity (MDA-MB-453 [17]) was “Active”, the inhibition [18] was “Active” and the inhibition [19] was “Active”. The Activity (MDA-MB-453 [20]) was “inactive” and the Activity (MDA-MB-453 [21]) was 0.54%.
